# Paper PMC12133000 (PLOS One, 2025)
# Where two headings read alike, the source gives them in different places.
# Assay: Pharmacokinetics of rivaroxaban in rats after avitinib or gefitinib pretreatment
# Assay type: in vivo, Sprague–Dawley (SD) rats
# Details: male, Sprague-Dawley, rat, plasma; for AUC(0-t): read-out: AUC(0-t); for CL/F: read-out: CLz/F (converted); for Cmax: read-out: Cmax; for MRT last: read-out: MRT(0-t); for half-life: read-out: t1/2z (converted); for k el: read-out: λz (converted); for MRT inf: read-out: MRT(0-∞)
# Protocol: Eighteen male Sprague–Dawley (SD) rats weighing 300 ± 20 g were provided by the Experimental Animal Center of Wenzhou Medical University (Wenzhou, China) and kept under controlled conditions at a temperature of 23 ± 2 °C, relative humidity of 50 ± 10%, and 12 h light–dark cycle. Eighteen male SD rats were randomly assigned to three groups: avitinib, gefitinib, and control, with six rats per group. Prior to the experiment, the rats were not administered any other medications and fasted for 12 h. The experimental procedures and protocols adhered to Animal Ethics standards and were approved by the Animal Care and Use Committee of Wenzhou Medical University (approval no. wydw2019–650). All rats were anesthetized with sodium pentobarbital (40mg/kg, i.p) to relieve pain. The rats were killed through cervical dislocation.
# Prior to the experiment in vivo, the six rats in the avitinib group were administered 30 mg/kg avitinib and 0.5% sodium carboxymethyl cellulose (CMC-Na) solution by gavage daily for 7 d. […] The supernatant was collected and stored at −80 °C. After thawing, 50 μL of plasma was extracted; 100 μL of acetonitrile solution containing midazolam (200 ng/mL) was then added to induce protein precipitation. After vortexing for 30 s and centrifuging at 13,000 rpm for 5 min, the […].
# All assays were performed in triplicate, and the results are expressed as mean ± standard deviation. DAS software v. […] SPSS v. 25.0 (IBM, NY, USA) was used for data processing. Student’s t-tests were used to detect differences between groups. Differences with p < 0.05 were considered statistically significant.
# [1] = po, 10 mg/kg, avitinib group, Mean
# [2] = po, 10 mg/kg, avitinib group, single rats No1-No6
# [3] = po, 10 mg/kg, gefitinib group, Mean
# [4] = po, 10 mg/kg, gefitinib group, single rats No1-No6
smiles,measurement,setting,value
"O=C(NC[C@H]1CN(c2ccc(N3CCOCC3=O)cc2)C(=O)O1)c1ccc(Cl)s1 [rivaroxaban, Rivaroxaban]",concentration at 12 h,"oral, rivaroxaban ng/ml mean, 吉非替尼 (gefitinib) group, mean of rats 7-12, time 12",1640 ng/mL
same,concentration at 24 h,"oral, rivaroxaban ng/ml mean, 艾维替尼 (avitinib) group, mean (one rat only), time 24",14.8 ng/mL
same,concentration at 5 min,"oral, rivaroxaban ng/ml mean, 艾维替尼 (avitinib) group, mean of rats 1-6, time 0.0833",284 ng/mL
same,concentration at 0.25 h,"oral, rivaroxaban ng/ml mean, 艾维替尼 (avitinib) group, mean of rats 1-6, time 0.25",588 ng/mL
same,concentration at 0.5 h,"oral, rivaroxaban ng/ml mean, 艾维替尼 (avitinib) group, mean of rats 1-6, time 0.5",1090 ng/mL
same,concentration at 1 h,"oral, rivaroxaban ng/ml mean, 艾维替尼 (avitinib) group, mean of rats 1-6, time 1",1730 ng/mL
same,concentration at 2 h,"oral, rivaroxaban ng/ml mean, 艾维替尼 (avitinib) group, mean of rats 1-6, time 2",1650 ng/mL
same,concentration at 3 h,"oral, rivaroxaban ng/ml mean, 艾维替尼 (avitinib) group, mean of rats 1-6, time 3",1390 ng/mL
same,concentration at 4 h,"oral, rivaroxaban ng/ml mean, 艾维替尼 (avitinib) group, mean of rats 1-6, time 4",1010 ng/mL
same,concentration at 6 h,"oral, rivaroxaban ng/ml mean, 艾维替尼 (avitinib) group, mean of rats 1-6, time 6",538 ng/mL
same,concentration at 8 h,"oral, rivaroxaban ng/ml mean, 艾维替尼 (avitinib) group, mean of rats 1-6, time 8",448 ng/mL
same,concentration at 12 h,"oral, rivaroxaban ng/ml mean, 艾维替尼 (avitinib) group, mean of rats 1-6, time 12",80.9 ng/mL
same,concentration at 0.25 h,"oral, rivaroxaban ng/ml, 吉非替尼 (gefitinib) group, individual rats 7-12, time 0.25",1690 ng/mL
same,concentration at 0.5 h,"oral, rivaroxaban ng/ml, 吉非替尼 (gefitinib) group, individual rats 7-12, time 0.5",3820 ng/mL
same,concentration at 1 h,"oral, rivaroxaban ng/ml, 吉非替尼 (gefitinib) group, individual rats 7-12, time 1",5910 ng/mL
same,concentration at 3 h,"oral, rivaroxaban ng/ml, 吉非替尼 (gefitinib) group, individual rats 7-12, time 3",9510 ng/mL
same,concentration at 4 h,"oral, rivaroxaban ng/ml, 吉非替尼 (gefitinib) group, individual rats 7-12, time 4",11300 ng/mL
same,concentration at 6 h,"oral, rivaroxaban ng/ml, 吉非替尼 (gefitinib) group, individual rats 7-12, time 6",3980 ng/mL
same,concentration at 8 h,"oral, rivaroxaban ng/ml, 吉非替尼 (gefitinib) group, individual rats 7-12, time 8",3270 ng/mL
same,concentration at 5 min,"oral, rivaroxaban ng/ml, 艾维替尼 (avitinib) group, individual rats 1-6, time 0.0833",237 ng/mL
same,concentration at 24 h,"oral, rivaroxaban ng/ml, 艾维替尼 (avitinib) group, individual rats 1-6, time 24",14.8 ng/mL
same,AUC(0-inf),[1],9350 ng·h/mL
same,Tmax,[1],1.33 h
same,AUC(0-t),[1],9000 ng·h/mL
same,CL/F,[1],19.7 mL/min/kg
same,Cmax,[1],1810 ng/mL
same,MRT last,[1],3.79 h
same,half-life,[1],2.2 h
same,k el,[1],0.000104 s⁻¹
same,Tmax,[2],1 h
same,MRT last,[2],3.83 h
same,MRT inf,[2],2.87 h
same,AUC(0-inf),[3],76000 ng·h/mL
same,Tmax,[3],3.17 h
same,AUC(0-t),[3],58000 ng·h/mL
same,CL/F,[3],2.32 mL/min/kg
same,Cmax,[3],8310 ng/mL
same,MRT last,[3],4.9 h
same,MRT inf,[3],8.23 h
same,Vd/F,"po, 10 mg/kg, gefitinib group, Mean, read-out: Vz/F",0.867 L/kg
same,half-life,[3],4.81 h
same,k el,[3],5.17e-05 s⁻¹
same,AUC(0-inf),[4],109000 ng·h/mL
same,AUC(0-t),[4],62400 ng·h/mL
same,CL/F,[4],1.53 mL/min/kg
same,Cmax,[4],6780 ng/mL
